Measured values as given in patent US8614253B2, “IRE-1α inhibitors” (MannKind Corporation, priority 2007, dated 2013).

Tests used:
IRE-1α [1] = target: T1, IRE-1α (Homo sapiens (Human), UniProt O75460); test: IRE-1α assay: in vitro cleavage of mini-XBP-1 mRNA stem-loop substrate by GST-IRE-1α; format: biochemical
Method: A fusion protein comprising glutathione S transferase (GST) and human IRE-1α (GST-IRE-1α) was obtained from a 500 ml baculovirus-infected insect cell culture and used to measure IRE-1α activity in vitro.
Five μl of a reaction mixture comprising 1× reaction buffer (5× reaction buffer is 100 mM Hepes pH 7.5, 250 mM KOAc, 2.5 mM MgCl2), 3 mM DTT, and 0.4% polyethylene glycol water were added to each well of 384 well plates. Twenty-five nanoliters of a 1 mM test compound solution were added to test wells. […] Negative control wells contained only reaction mixture and test compound.
The plates were again spun at 1200 rpm for 30 seconds.
The plates were covered with lids and incubated for one hour at 30° C. The plates were then transferred to an ACQUEST™ microplate reader. Data was analyzed using data analysis software, and the percent activity of IRE-1α was calculated.
Target sequence in this assay (O75460 19-977): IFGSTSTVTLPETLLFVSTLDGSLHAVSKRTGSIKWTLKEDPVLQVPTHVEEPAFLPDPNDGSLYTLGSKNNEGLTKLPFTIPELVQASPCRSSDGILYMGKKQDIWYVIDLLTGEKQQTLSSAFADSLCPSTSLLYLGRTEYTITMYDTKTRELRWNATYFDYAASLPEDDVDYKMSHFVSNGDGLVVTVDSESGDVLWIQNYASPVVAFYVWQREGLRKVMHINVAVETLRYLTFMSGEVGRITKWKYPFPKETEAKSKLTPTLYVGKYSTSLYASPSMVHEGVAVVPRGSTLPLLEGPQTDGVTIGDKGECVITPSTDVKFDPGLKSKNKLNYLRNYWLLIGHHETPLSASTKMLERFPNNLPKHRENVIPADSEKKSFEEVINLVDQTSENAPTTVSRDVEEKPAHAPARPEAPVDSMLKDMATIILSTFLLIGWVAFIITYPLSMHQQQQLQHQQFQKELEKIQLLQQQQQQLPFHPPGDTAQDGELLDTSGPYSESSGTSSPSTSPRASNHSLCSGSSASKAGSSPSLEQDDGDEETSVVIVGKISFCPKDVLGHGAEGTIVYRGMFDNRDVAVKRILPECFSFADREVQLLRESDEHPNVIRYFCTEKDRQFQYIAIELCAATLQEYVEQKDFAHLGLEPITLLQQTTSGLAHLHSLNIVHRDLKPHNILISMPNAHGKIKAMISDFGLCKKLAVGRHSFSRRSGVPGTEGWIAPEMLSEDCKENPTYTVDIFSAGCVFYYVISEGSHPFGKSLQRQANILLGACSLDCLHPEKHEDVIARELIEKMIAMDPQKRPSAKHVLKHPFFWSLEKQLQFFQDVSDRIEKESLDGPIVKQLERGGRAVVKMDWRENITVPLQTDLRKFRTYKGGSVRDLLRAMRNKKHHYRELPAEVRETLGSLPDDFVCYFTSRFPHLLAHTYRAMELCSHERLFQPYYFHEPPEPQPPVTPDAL

[2] = system: human myeloma RPMI8226 tumor xenografts; test: RPMI8226 myeloma tumor xenograft in SCID mice; format: in vivo, mouse; conditions: 0.75 mg/kg IV twice weekly
IRE-1α [3] = target: T1, IRE-1α; test: Phosphorylated IRE-1α and XBP1-splicing in RPMI8226 cells (Western blot, agarose gel); format: cell-based; conditions: 24 hour treatment, FIG. 6
Source text: FIG. 6. […] The numbers indicate the concentration of bortezomib in nM.

[4] = system: RPMI-8226 multiple myeloma cells; test: Proliferation of multiple myeloma cells (CellTiter-Glo); format: cell-based, human; conditions: RPMI8226 cells, 24 hours, FIG. 5
Method: FIG. 5. Graph showing inhibition of proliferation of multiple myeloma cells by IRE-1α inhibitor 11-28 (Example 11). RPMI-8226 multiple myeloma cells were seeded at 20,000 cells per well in RPMI culture medium containing 1% FBS and the required antibiotics. The plate was incubated overnight at 37° C., 95% air, 5% CO2. The following day, compound 11-28 or medium alone was added to wells, resulting in a final volume of 100 μl per well. The compound concentration ranged from 100 μM to 0 μM, with compounds diluted by a factor of 4. After addition of compound, the plate was incubated at 37° C., 95% air, 5% CO2 for 24 hours. Cell proliferation was measured using the CellTiter-Glo assay (Promega), following the manufacturer's instructions.
Proliferation assays using myeloma cell lines (U266, RPMI8226 and MM.1s) are used to determine ED50. Compounds are used as single agents and in combination with other chemotherapeutic drugs.

primary murine B cells = test: IgM secretion after LPS stimulation of primary murine B cells; format: cell-based, mouse
Method: FIG. 9. Inhibition of IgM secretion after LPS stimulation of primary murine B cells with selected IRE-1α inhibitors. […] However, compounds had little effect when at added after 40 hours of stimulation; only slight inhibition at the highest dose. Methods were performed as previously described by Iwakoshi et al., Nature 4, 321-29, 2003 for B cell stimulation, plasma cell differentiation and IgM secretion. Primary B cells were Isolated from BALB/c splenocytes using mouse CD43 Microbeads (Miltenyi cat# 130-049-801) with 1×10^6 cells per treatment. Purified B cells were stimulated in B Cell Media at a final density of 1×10^6/ml/well in 24-well plates with 20 μg/ml LPS (Sigma cat# L4391). IRE-1α inhibitor compound 17-1 was added at various concentrations (50 μM, 10 μM, 2 μM, 0.4 μM and 0.08 μM) at specified time points (t=0, t=24 hr, t=40 hr, etc.) Cells were incubated for 48 hr at 37° C. At end of the incubation, cells were spun in a plate at 1500 rpm/3 min. Supernatants were collected for quantitation for IgM secretion using a mouse IgM ELISA Kit (Bethyl Labs cat# E90-101). B Cell medium included RPMI+10% FBS supplemented with NEAA, HEPES, NaPyr, PSQ, and β-mercaptoethanol.

SMILES: COc1cccc(C=O)c1O [o-vanillin, 2-hydroxy-3-methoxybenzaldehyde]
- IC50 (IRE-1α [1]; values in text): 3000 nM

SMILES: COc1cccc(C=O)c1O [drawing 230]
- IC50 (IRE-1α [1]; Table 3): 2370 nM

SMILES: CC(C)C[C@H](NC(=O)[C@H](Cc1ccccc1)NC(=O)c1cnccn1)B(O)O [bortezomib, [(1R)-3-methyl-1-[[(2S)-1-oxo-3-phenyl-2-[(pyrazinylcarbonyl)amino]propyl]amino]butyl]boronic acid]
- tumor growth [2]: suppression of tumor growth
- levels of phosphorylated IRE-1α and XBP1-splicing (IRE-1α [3]): increases the levels of phosphorylated IRE-1α and XBP1-splicing

SMILES: COc1ccc(Br)c(C=O)c1O [drawing 180]
- IC50 (IRE-1α [1]; Table 3): 80 nM

SMILES: COc1cc(-c2cccs2)cc(C=O)c1O [11-28]
- inhibition of proliferation [4]: inhibits the proliferation of RPMI8226 myeloma cells

SMILES: COc1ccc(Br)c(C=O)c1O [6-bromo o-vanillin]
- IC50 (IRE-1α [1]; values in text): 30 nM

SMILES: COc1cccc(C=O)c1O [drawing 238]
- IC50 (IRE-1α [1]; Table 3): 5750 nM

SMILES: CN(C)C(=O)c1ccc(-c2ccc3c(C=O)c(O)ccc3c2)cc1 [17-1, 4-(5-formyl-6-hydroxynaphthalen-2-yl)-N,N-dimethylbenzamide]
- IgM secretion (primary murine B cells; added after 40 hours of stimulation): little effect
- IgM secretion (primary murine B cells; added at beginning of stimulation and again at 24 hours): blocked IgM secretion at all doses tested down to 100 nM
